Consider eleven compounds from ChEMBL document CHEMBL4152382, “Discovery of Tarantula Venom-Derived NaV1.7-Inhibitory JzTx-V Peptide 5-Br-Trp24 Analogue AM-6120 with Systemic Block of Histamine-Induced Pruritis” (J Med Chem, 2018).

Sodium channel protein type 9 subunit alpha, sequence (Q15858 whole entry): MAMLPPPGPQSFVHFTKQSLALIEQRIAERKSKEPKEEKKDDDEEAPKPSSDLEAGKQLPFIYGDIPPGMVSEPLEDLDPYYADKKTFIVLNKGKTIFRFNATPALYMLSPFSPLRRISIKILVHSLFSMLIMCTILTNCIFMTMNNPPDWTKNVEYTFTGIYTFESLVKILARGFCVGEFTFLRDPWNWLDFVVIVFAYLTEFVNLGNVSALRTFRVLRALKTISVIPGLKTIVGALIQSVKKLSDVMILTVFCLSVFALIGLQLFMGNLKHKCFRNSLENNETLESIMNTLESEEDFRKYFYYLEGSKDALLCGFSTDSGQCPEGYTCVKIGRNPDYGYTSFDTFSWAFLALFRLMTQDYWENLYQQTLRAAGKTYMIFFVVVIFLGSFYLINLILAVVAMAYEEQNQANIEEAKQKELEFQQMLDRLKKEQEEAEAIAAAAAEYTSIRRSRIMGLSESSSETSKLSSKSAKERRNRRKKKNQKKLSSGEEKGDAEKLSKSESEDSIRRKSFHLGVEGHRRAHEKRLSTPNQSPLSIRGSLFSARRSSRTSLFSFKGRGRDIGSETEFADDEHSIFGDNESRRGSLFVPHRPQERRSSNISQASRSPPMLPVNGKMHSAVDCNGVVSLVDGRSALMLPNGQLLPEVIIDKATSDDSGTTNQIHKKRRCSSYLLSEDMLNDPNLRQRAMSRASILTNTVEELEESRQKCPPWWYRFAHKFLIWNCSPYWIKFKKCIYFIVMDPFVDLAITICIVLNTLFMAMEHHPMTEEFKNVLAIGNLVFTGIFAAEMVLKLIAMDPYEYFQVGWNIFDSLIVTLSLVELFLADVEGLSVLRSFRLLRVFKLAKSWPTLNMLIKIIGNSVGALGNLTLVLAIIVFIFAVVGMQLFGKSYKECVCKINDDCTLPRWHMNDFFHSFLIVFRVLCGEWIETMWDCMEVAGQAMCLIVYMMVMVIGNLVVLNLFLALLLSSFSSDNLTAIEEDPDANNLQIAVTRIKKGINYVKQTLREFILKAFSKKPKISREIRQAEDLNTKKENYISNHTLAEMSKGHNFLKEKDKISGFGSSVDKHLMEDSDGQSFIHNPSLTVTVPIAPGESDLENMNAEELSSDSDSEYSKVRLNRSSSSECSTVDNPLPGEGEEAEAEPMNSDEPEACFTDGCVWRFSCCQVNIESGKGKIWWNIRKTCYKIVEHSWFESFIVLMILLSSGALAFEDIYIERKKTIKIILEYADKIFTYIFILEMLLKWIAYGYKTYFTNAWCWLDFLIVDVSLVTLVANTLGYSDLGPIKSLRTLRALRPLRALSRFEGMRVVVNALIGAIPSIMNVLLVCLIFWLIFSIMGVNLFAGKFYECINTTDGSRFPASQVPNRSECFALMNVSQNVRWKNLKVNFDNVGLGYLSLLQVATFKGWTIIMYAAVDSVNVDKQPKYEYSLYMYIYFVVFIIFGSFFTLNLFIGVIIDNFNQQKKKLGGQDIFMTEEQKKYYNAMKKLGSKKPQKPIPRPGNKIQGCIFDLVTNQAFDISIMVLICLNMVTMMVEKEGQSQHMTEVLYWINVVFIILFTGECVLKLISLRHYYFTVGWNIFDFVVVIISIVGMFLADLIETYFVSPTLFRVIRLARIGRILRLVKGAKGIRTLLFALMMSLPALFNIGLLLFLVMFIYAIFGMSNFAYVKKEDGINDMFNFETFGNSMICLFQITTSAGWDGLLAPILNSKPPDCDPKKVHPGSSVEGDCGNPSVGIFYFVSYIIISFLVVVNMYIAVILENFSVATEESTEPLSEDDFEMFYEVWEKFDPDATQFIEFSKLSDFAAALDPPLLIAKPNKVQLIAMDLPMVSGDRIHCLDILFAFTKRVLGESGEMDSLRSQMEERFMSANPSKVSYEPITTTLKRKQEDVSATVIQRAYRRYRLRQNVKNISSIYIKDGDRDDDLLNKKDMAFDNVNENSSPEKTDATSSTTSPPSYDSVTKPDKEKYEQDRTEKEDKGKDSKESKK

The assay addresses Sodium channel protein type 9 subunit alpha (Homo sapiens, UniProt Q15858). Briefly: Inhibition of human Nav1.7 expressed in HEK293 cells at holding potential of -125 mV […] by patchxpress-based electrophysiology assay. Type of assay: cell-based.
One may read the IC50 as the midpoint of a concentration-inhibition curve. As for `C#CC[C@H](N)C(=O)N[C@@H](Cc1ccc(O)cc1)C(=O)N[C@H]1CSSC[C@@H]2NC(=O)[C@@H]3CSSC[C@@H](C(=O)N[C@@H](CCCNC(=N)N)C(=O)N[C@@H](CCCCN)C(=O)N[C@@H](CCC(=O)O)C(=O)N[C@H](C(N)=O)[C@@H](C)CC)NC(=O)[C@H](Cc4c[nH]c5ccccc45)NC(=O)[C@H](CCCC)NC(=O)[C@H](CCCCN)NC(=O)[C@H](CSSC[C@H](NC(=O)[C@H]([C@@H](C)O)NC(=O)[C@H](Cc4c[nH]c5ccccc45)NC(=O)[C@H](CCCC)NC(=O)[C@H](Cc4c[nH]c5ccccc45)NC(=O)[C@H](CCCCN)NC(=O)[C@H](CCC(N)=O)NC1=O)C(=O)N[C@@H](CC(=O)O)C(=O)N[C@@H](CO)C(=O)N[C@@H](CCCCN)C(=O)N[C@@H](CCCNC(=N)N)C(=O)N[C@@H](C)C(=O)N3)NC(=O)[C@H](CCCNC(=N)N)NC(=O)[C@H](CC(C)C)NC(=O)CNC(=O)[C@H](CCC(=O)O)NC2=O`, the IC50 stood at 1.7 nM.
Under `C#CC[C@H](N)C(=O)N[C@@H](Cc1ccc(O)cc1)C(=O)N[C@H]1CSSC[C@@H]2NC(=O)[C@@H]3CSSC[C@@H](C(=O)N[C@@H](CCCNC(=N)N)C(=O)N[C@@H](CCCCN)C(=O)N[C@@H](CCC(=O)O)C(=O)N[C@H](C(N)=O)[C@@H](C)CC)NC(=O)[C@H](Cc4c[nH]c5c(Br)cccc45)NC(=O)[C@H](CC(C)C)NC(=O)[C@H](CCCCN)NC(=O)[C@H](CSSC[C@H](NC(=O)[C@H]([C@@H](C)O)NC(=O)[C@H](Cc4c[nH]c5ccccc45)NC(=O)[C@H](CCCC)NC(=O)[C@H](Cc4c[nH]c5ccccc45)NC(=O)[C@H](CCCCN)NC(=O)[C@H](CCC(N)=O)NC1=O)C(=O)N[C@@H](CC(=O)O)C(=O)N[C@@H](CO)C(=O)N[C@@H](CCCCN)C(=O)N[C@@H](CCCNC(=N)N)C(=O)N[C@@H](C)C(=O)N3)NC(=O)[C@H](CCCNC(=N)N)NC(=O)[C@H](CC(C)C)NC(=O)CNC(=O)[C@H](CCC(=O)O)NC2=O` stands 24 nM; under `C#CC[C@H](NC(=O)[C@@H](N)CCC(=O)O)C(=O)N[C@H]1CSSC[C@@H]2NC(=O)[C@@H]3CSSC[C@@H](C(=O)N[C@@H](CCCNC(=N)N)C(=O)N[C@@H](CCCCN)C(=O)N[C@@H](CCC(=O)O)C(=O)N[C@H](C(N)=O)[C@@H](C)CC)NC(=O)[C@H](Cc4c[nH]c5ccc(Br)cc45)NC(=O)[C@H](CC(C)C)NC(=O)[C@H](CCCCN)NC(=O)[C@H](CSSC[C@H](NC(=O)[C@H]([C@@H](C)O)NC(=O)[C@H](Cc4c[nH]c5ccccc45)NC(=O)[C@H](CCCC)NC(=O)[C@H](Cc4c[nH]c5ccccc45)NC(=O)[C@H](CCCCN)NC(=O)[C@H](CCC(N)=O)NC1=O)C(=O)N[C@@H](CC(=O)O)C(=O)N[C@@H](CO)C(=O)N[C@@H](CCCCN)C(=O)N[C@@H](CCCNC(=N)N)C(=O)N[C@@H](C)C(=O)N3)NC(=O)[C@H](CCCNC(=N)N)NC(=O)[C@H](CC(C)C)NC(=O)CNC(=O)[C@H](CCC(=O)O)NC2=O`, 0.3 nM; under `C#CC[C@H](N)C(=O)N[C@@H](Cc1ccc(O)cc1)C(=O)N[C@H]1CSSC[C@@H]2NC(=O)[C@@H]3CSSC[C@@H](C(=O)N[C@@H](CCCNC(=N)N)C(=O)N[C@@H](CCCCN)C(=O)N[C@@H](CCC(=O)O)C(=O)N[C@H](C(N)=O)[C@@H](C)CC)NC(=O)[C@H](Cc4c[nH]c5ccccc45)NC(=O)[C@H](C4CCCCC4)NC(=O)[C@H](CCCCN)NC(=O)[C@H](CSSC[C@H](NC(=O)[C@H]([C@@H](C)O)NC(=O)[C@H](Cc4c[nH]c5ccccc45)NC(=O)[C@H](CCCC)NC(=O)[C@H](Cc4c[nH]c5ccccc45)NC(=O)[C@H](CCCCN)NC(=O)[C@H](CCC(N)=O)NC1=O)C(=O)N[C@@H](CC(=O)O)C(=O)N[C@@H](CO)C(=O)N[C@@H](CCCCN)C(=O)N[C@@H](CCCNC(=N)N)C(=O)N[C@@H](C)C(=O)N3)NC(=O)[C@H](CCCNC(=N)N)NC(=O)[C@H](CC(C)C)NC(=O)CNC(=O)[C@H](CCC(=O)O)NC2=O`, 0.5 nM.
`C#CC[C@H](NC(=O)[C@@H](N)CCCCN)C(=O)N[C@H]1CSSC[C@@H]2NC(=O)[C@@H]3CSSC[C@@H](C(=O)N[C@@H](CCCNC(=N)N)C(=O)N[C@@H](CCCCN)C(=O)N[C@@H](CCC(=O)O)C(=O)N[C@H](C(N)=O)[C@@H](C)CC)NC(=O)[C@H](Cc4c[nH]c5ccc(Br)cc45)NC(=O)[C@H](CC(C)C)NC(=O)[C@H](CCCCN)NC(=O)[C@H](CSSC[C@H](NC(=O)[C@H]([C@@H](C)O)NC(=O)[C@H](Cc4c[nH]c5ccccc45)NC(=O)[C@H](CCCC)NC(=O)[C@H](Cc4c[nH]c5ccccc45)NC(=O)[C@H](CCCCN)NC(=O)[C@H](CCC(N)=O)NC1=O)C(=O)N[C@@H](CC(=O)O)C(=O)N[C@@H](CO)C(=O)N[C@@H](CCCCN)C(=O)N[C@@H](CCCNC(=N)N)C(=O)N[C@@H](C)C(=O)N3)NC(=O)[C@H](CCCNC(=N)N)NC(=O)[C@H](CC(C)C)NC(=O)CNC(=O)[C@H](CCC(=O)O)NC2=O`: the IC50 is 5.7 nM.
Under `C#CC[C@H](NC(=O)[C@H](C)N)C(=O)N[C@H]1CSSC[C@@H]2NC(=O)[C@@H]3CSSC[C@@H](C(=O)N[C@@H](CCCNC(=N)N)C(=O)N[C@@H](CCCCN)C(=O)N[C@@H](CCC(=O)O)C(=O)N[C@H](C(N)=O)[C@@H](C)CC)NC(=O)[C@H](Cc4c[nH]c5ccc(Br)cc45)NC(=O)[C@H](CC(C)C)NC(=O)[C@H](CCCCN)NC(=O)[C@H](CSSC[C@H](NC(=O)[C@H]([C@@H](C)O)NC(=O)[C@H](Cc4c[nH]c5ccccc45)NC(=O)[C@H](CCCC)NC(=O)[C@H](Cc4c[nH]c5ccccc45)NC(=O)[C@H](CCCCN)NC(=O)[C@H](CCC(N)=O)NC1=O)C(=O)N[C@@H](CC(=O)O)C(=O)N[C@@H](CO)C(=O)N[C@@H](CCCCN)C(=O)N[C@@H](CCCNC(=N)N)C(=O)N[C@@H](C)C(=O)N3)NC(=O)[C@H](CCCNC(=N)N)NC(=O)[C@H](CC(C)C)NC(=O)CNC(=O)[C@H](CCC(=O)O)NC2=O` stands 1 nM; under `C#CC[C@H](N)C(=O)N[C@@H](Cc1ccc(O)cc1)C(=O)N[C@H]1CSSC[C@@H]2NC(=O)[C@@H]3CSSC[C@@H](C(=O)N[C@@H](CCCNC(=N)N)C(=O)N[C@@H](CCCCN)C(=O)N[C@@H](CCC(=O)O)C(=O)N[C@@H](CCc4ccccc4)C(N)=O)NC(=O)[C@H](Cc4c[nH]c5ccc(Br)cc45)NC(=O)[C@H](CC(C)C)NC(=O)[C@H](CCCCN)NC(=O)[C@H](CSSC[C@H](NC(=O)[C@H]([C@@H](C)O)NC(=O)[C@H](Cc4c[nH]c5ccccc45)NC(=O)[C@H](CCCC)NC(=O)[C@H](Cc4c[nH]c5ccccc45)NC(=O)[C@H](CCCCN)NC(=O)[C@H](CCC(N)=O)NC1=O)C(=O)N[C@@H](CC(=O)O)C(=O)N[C@@H](CO)C(=O)N[C@@H](CCCCN)C(=O)N[C@@H](CCCNC(=N)N)C(=O)N[C@@H](C)C(=O)N3)NC(=O)[C@H](CCCNC(=N)N)NC(=O)[C@H](CC(C)C)NC(=O)CNC(=O)[C@H](CCC(=O)O)NC2=O`, 1.1 nM.
With `C#CC[C@H](N)C(=O)N[C@@H](Cc1ccc(O)cc1)C(=O)N[C@H]1CSSC[C@@H]2NC(=O)[C@@H]3CSSC[C@@H](C(=O)N[C@@H](CCCNC(=N)N)C(=O)N[C@@H](CCCCN)C(=O)N[C@@H](CCC(=O)O)C(=O)N[C@H](C(N)=O)[C@@H](C)CC)NC(=O)[C@H](Cc4ccccc4)NC(=O)[C@H](CC(C)C)NC(=O)[C@H](CCCCN)NC(=O)[C@H](CSSC[C@H](NC(=O)[C@H]([C@@H](C)O)NC(=O)[C@H](Cc4c[nH]c5ccccc45)NC(=O)[C@H](CCCC)NC(=O)[C@H](Cc4c[nH]c5ccccc45)NC(=O)[C@H](CCCCN)NC(=O)[C@H](CCC(N)=O)NC1=O)C(=O)N[C@@H](CC(=O)O)C(=O)N[C@@H](CO)C(=O)N[C@@H](CCCCN)C(=O)N[C@@H](CCCNC(=N)N)C(=O)N[C@@H](C)C(=O)N3)NC(=O)[C@H](CCCNC(=N)N)NC(=O)[C@H](CC(C)C)NC(=O)CNC(=O)[C@H](CCC(=O)O)NC2=O`, 15 nM corresponded to half-maximal inhibition (IC50).
Compound `C#CC[C@H](N)C(=O)N[C@@H](Cc1ccc(O)cc1)C(=O)N[C@H]1CSSC[C@@H]2NC(=O)[C@@H]3CSSC[C@@H](C(=O)N[C@@H](CCCNC(=N)N)C(=O)N[C@@H](CCCCN)C(=O)N[C@@H](CCC(=O)O)C(=O)N[C@@H](Cc4ccccc4)C(N)=O)NC(=O)[C@H](Cc4c[nH]c5ccc(Br)cc45)NC(=O)[C@H](CC(C)C)NC(=O)[C@H](CCCCN)NC(=O)[C@H](CSSC[C@H](NC(=O)[C@H]([C@@H](C)O)NC(=O)[C@H](Cc4c[nH]c5ccccc45)NC(=O)[C@H](CCCC)NC(=O)[C@H](Cc4c[nH]c5ccccc45)NC(=O)[C@H](CCCCN)NC(=O)[C@H](CCC(N)=O)NC1=O)C(=O)N[C@@H](CC(=O)O)C(=O)N[C@@H](CO)C(=O)N[C@@H](CCCCN)C(=O)N[C@@H](CCCNC(=N)N)C(=O)N[C@@H](C)C(=O)N3)NC(=O)[C@H](CCCNC(=N)N)NC(=O)[C@H](CC(C)C)NC(=O)CNC(=O)[C@H](CCC(=O)O)NC2=O` displayed a concentration for half-maximal inhibition (IC50) of 1.1 nM.
The compound `C#CC[C@H](N)C(=O)N[C@@H](Cc1ccc(O)cc1)C(=O)N[C@H]1CSSC[C@@H]2NC(=O)[C@@H]3CSSC[C@@H](C(=O)N[C@@H](CCCNC(=N)N)C(=O)N[C@@H](CCCCN)C(=O)N[C@@H](CCC(=O)O)C(=O)N[C@H](C(N)=O)[C@@H](C)CC)NC(=O)[C@H](CCc4ccccc4)NC(=O)[C@H](CC(C)C)NC(=O)[C@H](CCCCN)NC(=O)[C@H](CSSC[C@H](NC(=O)[C@H]([C@@H](C)O)NC(=O)[C@H](Cc4c[nH]c5ccccc45)NC(=O)[C@H](CCCC)NC(=O)[C@H](Cc4c[nH]c5ccccc45)NC(=O)[C@H](CCCCN)NC(=O)[C@H](CCC(N)=O)NC1=O)C(=O)N[C@@H](CC(=O)O)C(=O)N[C@@H](CO)C(=O)N[C@@H](CCCCN)C(=O)N[C@@H](CCCNC(=N)N)C(=O)N[C@@H](C)C(=O)N3)NC(=O)[C@H](CCCNC(=N)N)NC(=O)[C@H](CC(C)C)NC(=O)CNC(=O)[C@H](CCC(=O)O)NC2=O` returned an IC50 above 1000 nM.
`C#CC[C@H](N)C(=O)N[C@@H](Cc1ccc(O)cc1)C(=O)N[C@H]1CSSC[C@@H]2NC(=O)[C@@H]3CSSC[C@@H](C(=O)N[C@@H](CCCNC(=N)N)C(=O)N[C@@H](CCCCN)C(=O)N[C@@H](CCC(=O)O)C(=O)N[C@H](C(N)=O)[C@@H](C)CC)NC(=O)[C@H](Cc4c[nH]c5ccccc45)NC(=O)[C@H](CC(C)C)NC(=O)[C@H](CCCCN)NC(=O)[C@H](CSSC[C@H](NC(=O)[C@H]([C@@H](C)O)NC(=O)[C@H](Cc4c[nH]c5ccccc45)NC(=O)[C@H](CCCC)NC(=O)[C@H](Cc4c[nH]c5ccc(Br)cc45)NC(=O)[C@H](CCCCN)NC(=O)[C@H](CCC(N)=O)NC1=O)C(=O)N[C@@H](CC(=O)O)C(=O)N[C@@H](CO)C(=O)N[C@@H](CCCCN)C(=O)N[C@@H](CCCNC(=N)N)C(=O)N[C@@H](C)C(=O)N3)NC(=O)[C@H](CCCNC(=N)N)NC(=O)[C@H](CC(C)C)NC(=O)CNC(=O)[C@H](CCC(=O)O)NC2=O` displayed a concentration for half-maximal inhibition (IC50) of 22 nM.
